Series [1] addresses T1, C-X-C chemokine receptor type 2 (Homo sapiens, UniProt P25025).
T1 sequence (P25025 whole entry): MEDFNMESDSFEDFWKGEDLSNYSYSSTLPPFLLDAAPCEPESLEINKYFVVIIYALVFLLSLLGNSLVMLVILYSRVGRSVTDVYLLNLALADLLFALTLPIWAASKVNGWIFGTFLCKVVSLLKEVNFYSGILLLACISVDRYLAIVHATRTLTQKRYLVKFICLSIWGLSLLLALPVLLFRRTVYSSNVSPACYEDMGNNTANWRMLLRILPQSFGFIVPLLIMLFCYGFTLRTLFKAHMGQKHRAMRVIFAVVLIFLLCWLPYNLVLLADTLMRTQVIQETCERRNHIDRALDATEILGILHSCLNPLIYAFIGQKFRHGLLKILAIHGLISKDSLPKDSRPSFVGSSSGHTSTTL
Description: Displacement of human [125I]IL-8 from human CXCR2

Series [2] in a line: AUC in rat at 10 mg/kg, po. It counts as ADME, organism-based. Set-up: dose 10 mg/kg, route oral. The note with it: plasma.
The target of series [3] is T2, C-X-C chemokine receptor type 1 (Homo sapiens, UniProt P25024).
T2 sequence (P25024 whole entry): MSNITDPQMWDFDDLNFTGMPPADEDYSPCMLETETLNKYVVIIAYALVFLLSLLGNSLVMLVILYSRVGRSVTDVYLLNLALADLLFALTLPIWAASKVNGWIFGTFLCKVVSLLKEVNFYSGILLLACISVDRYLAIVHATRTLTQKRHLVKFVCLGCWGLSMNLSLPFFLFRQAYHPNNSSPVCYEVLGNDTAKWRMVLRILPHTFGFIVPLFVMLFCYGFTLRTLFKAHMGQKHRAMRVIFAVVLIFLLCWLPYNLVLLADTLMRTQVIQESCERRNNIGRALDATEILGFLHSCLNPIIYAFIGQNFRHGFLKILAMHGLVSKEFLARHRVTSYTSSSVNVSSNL
Description: Displacement of human [125I]IL-8 from human CXCR1

Molecules are shown by their SMILES.

The compound `CC[C@@H](Nc1c(Nc2cccc(C(=O)N(C)C)c2O)c(=O)c1=O)c1ccccc1` returned a Ki in series [1] of 4.4 nM. The same compound gave an AUC in series [2] of 17.4 µM·h.

Take `CC[C@@H](Nc1c(Nc2cccc(C(=O)N(C)C)c2O)c(=O)c1=O)c1cccs1`: the Ki was 5 nM in series [1] and 210 nM in series [3]. In addition, in series [2], the AUC was found to be 2.5 µM·h. Take `CC[C@@H](Nc1c(Nc2cccc(C(=O)N3CCN(C(=O)c4ccccn4)CC3)c2O)c(=O)c1=O)c1ccccc1`: in series [1], the Ki is 20 nM. On to `CC[C@@H](Nc1c(Nc2ccc(-c3ccccn3)c(C(=O)N(C)C)c2O)c(=O)c1=O)c1ccccc1`, for which the inhibition constant (Ki) is 15 nM in series [1] and greater than 1000 nM in series [3]. As to `CC[C@@H](Nc1c(Nc2cc(-c3ccccc3)cc(C(=O)N(C)C)c2O)c(=O)c1=O)c1ccccc1`, the Ki in series [1] was greater than 2000 nM. For `CC[C@@H](Nc1c(Nc2cc(Cl)cc(C(=O)N(C)C)c2O)c(=O)c1=O)c1cccs1`, the results for the Ki in series [1] and in series [3] were 50 nM and 1220 nM, respectively. In series [2], this compound gave an AUC of 2.2 µM·h. Regarding `CC[C@@H](Nc1c(Nc2cc(C)cc(C(=O)N(C)C)c2O)c(=O)c1=O)c1cccs1`, the Ki in series [1] turned out to be 76 nM; in series [3], 2800 nM. For `CC[C@@H](Nc1c(Nc2ccccc2O)c(=O)c1=O)c1ccc(C)o1`, the Ki in series [1] was found to be 22 nM.

In series [1], `CC[C@H](c1ccccc1)N(C)c1c(Nc2cccc(C(=O)N(C)C)c2O)c(=O)c1=O` had a Ki greater than 270 nM.

On to `CC[C@@H](Nc1c(Nc2cccc(C(=O)N3CC[C@H](O)C3)c2O)c(=O)c1=O)c1ccccc1`, for which the Ki in series [1] was 18 nM; in series [3] it was 21 nM.

Regarding `CC[C@@H](Nc1c(Nc2cccc(C(=O)N3CC[C@H](CO)C3)c2O)c(=O)c1=O)c1ccccc1`, the Ki in series [1] stood at 20 nM. Also, in series [2], the AUC is 0.44 µM·h. As for `CC[C@@H](Nc1c(Nc2cccc(C(=O)N3CCCC3C(=O)O)c2O)c(=O)c1=O)c1ccccc1` (stereo partly specified), the Ki in series [1] amounted to 5 nM; in series [3], 30 nM. In turn, `CC[C@@H](Nc1c(Nc2ccc(Br)c(C(=O)N(C)C)c2O)c(=O)c1=O)c1ccccc1` had a Ki in series [1] of 4 nM. In series [2], the AUC worked out at 0.06 µM·h.

With `CC[C@@H](Nc1c(Nc2ccc(-c3ccccc3)c(C(=O)N(C)C)c2O)c(=O)c1=O)c1ccccc1`, in series [1], the Ki was determined as 17 nM. Take `CC[C@@H](Nc1c(Nc2cccc(C(N)=O)c2O)c(=O)c1=O)c1ccccc1`: in series [1], the affinity, expressed as Ki, was 25 nM. In series [2], this compound had an AUC of 2.2 µM·h. In series [1], `CC[C@@H](Nc1c(Nc2cc(C#N)cc(C(=O)N(C)C)c2O)c(=O)c1=O)c1ccccc1` displayed a Ki of 3 nM. Same read-out and setting: the figure for `CC[C@@H](Nc1c(N2CCOc3c(C(=O)N(C)C)cccc32)c(=O)c1=O)c1ccccc1` is greater than 270 nM. Take `CC[C@@H](Nc1c(Nc2cccc(C(=O)N(C)C(C)C)c2O)c(=O)c1=O)c1ccccc1`: the Ki is 11 nM in series [1] and 123 nM in series [3]. In series [2], this compound gave an AUC of 1.4 µM·h. Regarding `CC[C@@H](Nc1c(Nc2cccc(C(=O)N3CC(O)C3)c2O)c(=O)c1=O)c1ccccc1`, in series [1], the Ki stood at 20 nM. This compound also registered an AUC in series [2] of 0.5 µM·h.

On to `CC[C@@H](Nc1c(Nc2cccc(C(=O)N3CCN(C)CC3)c2O)c(=O)c1=O)c1ccccc1`, for which the Ki in series [1] is 12 nM; in series [3], 41 nM. In series [1], `CC[C@@H](Nc1c(Nc2cccc(C(=O)O)c2O)c(=O)c1=O)c1ccc(C)o1` came in with a Ki of 12 nM. On the same count and under the same terms, the figure for `CC[C@@H](Nc1c(Nc2cccc(C(=O)N3CCN(C(C)=O)CC3)c2O)c(=O)c1=O)c1ccccc1` is 27 nM. Regarding `CC[C@@H](Nc1c(Nc2c(C)ccc(C(=O)N(C)C)c2O)c(=O)c1=O)c1ccccc1`, the Ki turned out to be 4.5 nM in series [1] and 381 nM in series [3]. Moreover, the AUC in series [2] was determined as 2.3 µM·h. Consider `CC[C@@H](Nc1c(Nc2cc(Br)cc(C(=O)N(C)C)c2O)c(=O)c1=O)c1cccs1`, for which the Ki was 61 nM in series [1] and 2070 nM in series [3]. The compound further had an AUC in series [2] of 1.4 µM·h. In series [1], `CC[C@@H](Nc1c(Nc2cccc(C(=O)NC(C)C)c2O)c(=O)c1=O)c1ccccc1` gave a Ki of 219 nM. Consider `CC[C@@H](Nc1c(Nc2cccc(C(=O)NC)c2O)c(=O)c1=O)c1ccccc1`, for which the Ki in series [1] worked out at 28 nM. The same compound came in with an AUC in series [2] of 0.4 µM·h.

`CC[C@@H](Nc1c(Nc2cc(C)cc(C(=O)N(C)C)c2O)c(=O)c1=O)c1ccccc1`: the Ki in series [1] was determined as 203 nM. In series [1], `CC[C@@H](Nc1c(Nc2cccc(C(=O)N3CCOCC3)c2O)c(=O)c1=O)c1ccccc1` yielded a Ki of 10 nM. For the compound `CC[C@@H](Nc1c(Nc2cc(C#N)cc(C(=O)N(C)C)c2O)c(=O)c1=O)c1cccs1`, the Ki is 5 nM in series [1] and 54 nM in series [3]. As to `CC[C@@H](Nc1c(Nc2cccc(C(=O)N3CCCC3)c2O)c(=O)c1=O)c1ccccc1`, the Ki in series [1] turned out to be 9 nM. The same compound returned an AUC in series [2] of 1 µM·h. Consider `CC[C@@H](Nc1c(Nc2cccc(C(=O)NC3CC3)c2O)c(=O)c1=O)c1ccccc1`, for which affinity in series [1] was put at a Ki of 34 nM.

In series [1], `CC[C@@H](Nc1c(Nc2cccc(C(=O)N(C)C)c2OC)c(=O)c1=O)c1ccccc1` yielded a Ki greater than 270 nM. As to `CC[C@H](c1ccccc1)N(C)c1c(N(C)c2cccc(C(=O)N(C)C)c2O)c(=O)c1=O`, the Ki in series [1] was greater than 270 nM.

Broadly, the Ki is the dissociation constant of the complex between target and ligand, obtained from inhibition or displacement. Read a low Ki as tighter binding. The term AUC denotes the area under the concentration-time curve, a measure of exposure. The low end stands for less exposure, the high end for more exposure.

Source of the values: ChEMBL document CHEMBL1153641, “Diaminocyclobutenediones as potent and orally bioavailable CXCR2 receptor antagonists: SAR in the phenolic amide region” (Bioorg Med Chem Lett, 2009).
